What was measured:
[1] = cell viability assay using tetrazolium salt (MTS); conditions: human
Procedure: The cell viability assay using tetrazolium salt (MTS) was also performed in HEp-2 cells.

RSV strain A2 = test: standard plaque reduction assay for anti-RSV activity; conditions: for SI (CC50/IC50): calculated selectivity index, HEp-2 cells; for IC50: human respiratory syncytial virus, HEp-2, read-out: IC50 (RSV)
RSV [2] = test: plaque titration assay of extracellular and cell-associated virus yield; type: cell-based; conditions: HEp-2 cells, MOI of 3, compound at 0.2 µM
Procedure: The titer of extracellular (EX) and cell-associated (CA) RSV after incubation in Hep-2 cells at a multiplicity of infection (MOI) of 3 was determined by a plaque titration assay. Infected cells were harvested by scraping into fresh supernatant medium and then subjected to a rapid freeze-thaw cycle at -80 °C ethanol and a 37 °C water bath, respectively, to release infectious virus.

RSV [3] = test: time-of-addition study of antiviral effect; type: cell-based; conditions: HEp-2 cells, compound at 0.2 µM added from -1h to 6h relative to infection
Procedure: A time-of-addition study was performed using the compounds of Examples 25 and 61.

Row | SMILES | CC50 [1] [µM] | SI (CC50/IC50) (RSV strain A2) | IC50 (RSV strain A2) [µM] | inhibition of cell-associated (CA) RSV yield (RSV [2]) | inhibition of extracellular (EX) RSV yield (RSV [2]) | time dependency of inhibition of RSV yield (RSV [3]) | CC50 ([1]; HEp-2 cells) [µM]
1 | COc1ccc(-c2c(C)nc3c(NCc4ccncc4)cc(C)nn23)cc1OC [Example 1, 3-(3,4-dimethoxyphenyl)-2,6-dimethyl-N-(pyridin-4-ylmethyl)imidazo[1,2-b]pyridazin-8-amine] | 60 | 2000 | 0.03 | – | – | – | –
2 | Cc1cc(CCCOc2c(C)cc(-c3noc(C(F)(F)F)n3)cc2C)on1 [Pleconaril, reference compound] | 300 | 38 | 8 | – | – | – | –
3 | COc1ccc(-c2c(C)nn3c(NCc4cccc(S(C)(=O)=O)c4)cc(C)nc23)cc1OC [Example 25, 3-(3,4-dimethoxyphenyl)-2,5-dimethyl-N-[(3-methylsulfonylphenyl)methyl]pyrazolo[1,5-a]pyrimidin-7-amine] | > 500 | >25000 | 0.02 | approximately 1 log10 | approximately 1 log10 | time-independent inhibition of RSV yield | –
4 | Cc1cc(CNc2cc(C)nc3c(-c4ccc5c(c4)c(C)nn5C)c(C)nn23)ccn1 [Example 5, 3-(1,3-dimethyl-1H-indazol-5-yl)-2,5-dimethyl-N-[(2-methylpyridin-4-yl)methyl]pyrazolo[1,5-a]pyrimidin-7-amine] | 18 | 450 | 0.04 | – | – | – | –
5 | CC(=O)Nc1nc(C)c(-c2ccc(Cl)c(S(=O)(=O)NCCO)c2)s1 [PIK-93, reference compound] | – | – | 0.4 | – | – | – | –
6 | Cc1cc(NCc2ccncc2)n2nc(C)c(-c3ccc4c(c3)c(C)nn4C)c2n1 [Example 68, 3-(1,3-dimethyl-1H-indazol-5-yl)-2,5-dimethyl-N-(pyridin-4-ylmethyl)pyrazolo[1,5-a]pyrimidin-7-amine] | 40 | 1000 | 0.04 | – | – | – | –
7 | COc1ccc(-c2c(C)nn3c(NCc4ccc(S(N)(=O)=O)cc4)nc(C)nc23)cc1OC [Example 45, 4-[[[8-(3,4-dimethoxyphenyl)-2,7-dimethylpyrazolo[1,5-a][1,3,5]triazin-4-yl]amino]methyl]benzenesulfonamide] | > 500 | >7143 | 0.07 | – | – | – | –
8 | COc1ccc(-c2c(C)nn3c(NCc4ccc(C)nc4)cc(C)nc23)cc1OC [Example 29, 3-(3,4-dimethoxyphenyl)-2,5-dimethyl-N-[(6-methyl-3-pyridyl)methyl]pyrazolo[1,5-a]pyrimidin-7-amine] | – | 150 | 0.04 | – | – | – | 60
9 | Cc1cc(NCc2ccncc2)c2nc(C)c(-c3ccc4c(c3)c(C)nn4C)n2n1 [Example 61, 3-(1,3-dimethyl-1H-indazol-5-yl)-2,6-dimethyl-N-(pyridin-4-ylmethyl)imidazo[1,2-b]pyridazin-8-amine] | 18 | 514 | 0.034 | approximately 1 log10 | approximately 1 log10 | time-independent inhibition of RSV yield | –
10 | COc1ccc(-c2c(C)nn3c(NCc4ccncc4)nc(C)nc23)cc1OC [Example 38, 8-(3,4-dimethoxyphenyl)-2,7-dimethyl-N-(4-pyridylmethyl)pyrazolo[1,5-a][1,3,5]triazin-4-amine] | 60 | 667 | 0.09 | – | – | – | –
11 | CCc1cc(CNc2cc(C)nc3c(-c4ccc5c(c4)c(C)nn5C)c(C)nn23)ccn1 [Example 6, 3-(1,3-dimethyl-1H-indazol-5-yl)-2,5-dimethyl-N-[(2-ethylpyridin-4-yl)methyl]pyrazolo[1,5-a]pyrimidin-7-amine] | 160 | 3200 | 0.05 | – | – | – | –
